In patent US20240092799A1, “MNK INHIBITORS” (Hepagene Therapeutics (HK) Limited, priority 2020, published 2024) one finds IC50 data, which are given here for 10 compounds.

Structures are written as SMILES.

One experiment has as its system TMD-8 cell p-IF4E. Put plainly: p-eIF4E Signaling Cellular Assay (CisBio HTRF) in TMD-8 cells. It is filed as cell-based. Particulars: Homo sapiens, TMD8, 40 min, 40 min treatment. Summed up: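 TMD-8 cells (20 k/well, exponential phase, RPMI 1640 + 10% FBS) treated with compound for 40 min at 37 °C, then lysed for 30 min and incubated overnight at RT with HTRF antibodies. 665/620 nm ratio converted to % inhibition vs controls; IC50 from variable-slope nonlinear fit.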
A general note: In TR-FRET formats the signal depends on donor and acceptor labels being close together.

A further experiment has as its target MNK2 (Homo sapiens (Human), UniProt Q9HBH9). Put plainly: MNK Biochemical Enzymatic Assay (ADP-Glo), MNK2 binding assay. Summed up:
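Human MNK1 or MNK2 was preincubated with a 10-point, 1:3 serial dilution of compound for 15 min at 25 °C. Substrate was then added and the reaction ran 60 min at 25 °C. ADP formed was read by ADP-Glo luminescence, and IC50 came from non-linear regression.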

Sequence of MNK2 (Q9HBH9 whole entry): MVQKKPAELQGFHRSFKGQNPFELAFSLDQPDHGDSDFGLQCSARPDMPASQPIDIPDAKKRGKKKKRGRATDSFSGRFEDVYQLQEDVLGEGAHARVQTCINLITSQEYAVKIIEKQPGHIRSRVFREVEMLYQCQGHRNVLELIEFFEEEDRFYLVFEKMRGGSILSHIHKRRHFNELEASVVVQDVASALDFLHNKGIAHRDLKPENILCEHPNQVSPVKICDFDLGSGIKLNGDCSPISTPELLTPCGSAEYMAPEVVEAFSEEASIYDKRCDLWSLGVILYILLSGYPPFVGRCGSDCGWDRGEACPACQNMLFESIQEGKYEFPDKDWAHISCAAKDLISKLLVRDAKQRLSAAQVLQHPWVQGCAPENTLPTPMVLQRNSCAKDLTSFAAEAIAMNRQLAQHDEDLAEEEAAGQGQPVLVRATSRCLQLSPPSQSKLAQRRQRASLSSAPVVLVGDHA

With `O=C1NC2(CCCCC2)c2c1sc(Nc1cc(N[C@H]3CCOC3)ncn1)c2Cl` [Compound XXI-A, (S)-3′-chloro-2′-((6-((tetrahydrofuran-3-yl)amino)pyrimidin-4-yl)amino)spiro[cyclohexane-1,4′-thieno[2,3-c]pyrrol]-6′(5′H)-one], the figures for the concentration for half-maximal inhibition (IC50) in the experiment with TMD-8 cell p-IF4E and at MNK2 were 0.01 to 0.1 µM and 0.0001 to 0.01 µM, respectively.
The corresponding values for `Cc1cc(Nc2cc(Nc3ncc(F)cc3F)ncn2)[n+]([O-])c2c1C(=O)NC21CCCCC1` [Compound XXIX-AM, 2′-((6-((3,5-difluoropyridin-2-yl)amino)pyrimidin-4-yl)amino)-4′-methyl-5′-oxo-5′,6′-dihydrospiro[cyclohexane-1,7′-pyrrolo[3,4-b]pyridine] 1′-oxide] are 0.01 to 0.1 µM and 0.0001 to 0.01 µM.
On to `Cn1ccc(Nc2cc(Nc3nc4c(s3)C(=O)NC43CCCCC3)ncn2)n1` [Compound XXVIII-M, 2′-((6-((1-methyl-1H-pyrazol-3-yl)amino)pyrimidin-4-yl)amino)spiro[cyclohexane-1,4′-pyrrolo[3,4-d]thiazol]-6′(5′H)-one], for which the IC50 in the experiment with TMD-8 cell p-IF4E and on MNK2 was 0.0001 to 0.01 µM in each case.
Take `O=C1NC2(CCCCC2)c2cc(Nc3cc(NC(=O)C4CCCC4)ncn3)sc21` [Compound XX-D, N-(6-((6′-Oxo-5′,6′-dihydrospiro[cyclohexane-1,4′-thieno[2,3-c]pyrrol]-2′-yl)amino)pyrimidin-4-yl)cyclopentanecarboxamide]: the results for the IC50 with TMD-8 cell p-IF4E and on MNK2 were 0.1 to 1 µM and 0.0001 to 0.01 µM, respectively.
Taken in the same sequence, the figures for `Cn1cnc(Nc2cc(Nc3nc4c(s3)C(=O)NC43CCCCC3)ncn2)n1` [Compound XXVIII-K, 2′-((6-((1-methyl-1H-1,2,4-triazol-3-yl)amino)pyrimidin-4-yl)amino)spiro[cyclohexane-1,4′-pyrrolo[3,4-d]thiazol]-6′(5′H)-one] were 0.01 to 0.1 µM and 0.0001 to 0.01 µM.
The corresponding values for `Cc1cc(Nc2cc(N[C@H]3C[C@@H](O)C3)ncn2)[n+]([O-])c2c1C(=O)NC21CCCCC1` [Compound XXIX-AP, 2′-((6-(((cis)-3-hydroxycyclobutyl)amino)pyrimidin-4-yl)amino)-4′-methyl-5′-oxo-5′,6′-dihydrospiro[cyclohexane-1,7′-pyrrolo[3,4-b]pyridine] 1′-oxide] are 0.01 to 0.1 µM and 0.0001 to 0.01 µM.
Consider `O=C1NC2(CCCCC2)c2cc(Nc3cc(Nc4ccccn4)ncn3)sc21` [Compound XXIII-C, 2′-((6-(Pyridin-2-ylamino)pyrimidin-4-yl)amino)spiro[cyclohexane-1,4′-thieno[2,3-c]pyrrol]-6′(5′H)-one], for which the values for the IC50 in the experiment with TMD-8 cell p-IF4E and on MNK2 were 0.01 to 0.1 µM and 0.0001 to 0.01 µM, respectively.
The corresponding values for `C[C@@H]1COCCN1C(=O)C1CCc2c(sc3ncnc(Nc4cc5c(s4)C(=O)NC54CCCCC4)c23)C1` (stereo partly drawn) [Compound XXV-C, 2′-((7-((R)-3-Methylmorpholine-4-carbonyl)-5,6,7,8-tetrahydrobenzo[4,5]thieno[2,3-d]pyrimidin-4-yl)amino)spiro[cyclohexane-1,4′-thieno[2,3-c]pyrrol]-6′(5′H)-one] are 0.1 to 1 µM and 0.01 to 0.1 µM.
As to `Cc1cc(Nc2cc(Nc3ccn(CCO)n3)ncn2)[n+]([O-])c2c1C(=O)NC21CCCCC1` [Compound XXIX-AT, 2′-((6-((1-(2-hydroxyethyl)-1H-pyrazol-3-yl)amino)pyrimidin-4-yl)amino)-4′-methyl-5′-oxo-5′,6′-dihydrospiro[cyclohexane-1,7′-pyrrolo[3,4-b]pyridine] 1′-oxide], the IC50 in the experiment on TMD-8 cell p-IF4E and on MNK2 was 0.0001 to 0.01 µM throughout.
As to `O=C1NC2(CCCCC2)c2cc(Nc3ncnc4[nH]c(C5CC5)cc34)sc21` [Compound XXXI-A, 2′-((6-cyclopropyl-7H-pyrrolo[2,3-d]pyrimidin-4-yl)amino)spiro[cyclohexane-1,4′-thieno[2,3-c]pyrrol]-6′(5′H)-one], the half-maximal inhibitory concentration (IC50) with TMD-8 cell p-IF4E and on MNK2 was 0.0001 to 0.01 µM in each case.

Broadly, the IC50 is the concentration at which inhibition is half-maximal. Low values mean greater potency in that assay, high ones weaker potency in that assay.
